Test results taken from paper PMC12298876, “Angiotensin-Converting Enzyme Inhibitory Activity of Selected Phenolic Acids, Flavonoids, Their O-Glucosides, and Low-Molecular-Weight Phenolic Metabolites in Relation to Their Oxidation Potentials” (Metabolites, 2025).
Where two headings read alike, the source gives them in different places. Marks after values point to notes of the source that are not given here.

Columns and labels:
[1] = First anodic oxidation potential by differential pulse voltammetry (DPV); format: physicochemical; conditions: for Anodic Peak Potential Epa: DPV, first anodic peak, 0.25 mM standard in 0.1 M Britton-Robinson buffer pH 6.0 in 80% methanol, glassy carbon vs Ag/AgCl, 100 mV/s
Method: A potentiostat/galvanostat G 750 (Gamry Instruments, Warminster, USA) was used for voltametric experiments. A conventional three-electrode system: a 3 mm diameter glassy carbon working electrode (BAS MF-2012), an Ag/AgCl electrode as a reference electrode, and a platinum as counter electrode, was used in the study. Differential pulse voltametric experiments were performed with phenolic acids and flavonoids prepared in a 1:1 (v/v) mixture of 500 µM standard solution and […] Britton-Robinson (B-R) buffer (pH 6.0 in 80% methanol), which also served as a supporting electrolyte. The voltametric experiments were performed at room temperature using an electrochemical cell (volume 200 µL), to which the analyzed standard solution, mixed previously with the buffer solution, was introduced. The differential pulse voltammograms were acquired in the range of −100 to 1300 mV at a scanning rate of 100 mV/s. Before use, the surface of the glassy carbon electrode was carefully polished with 0.05 µm alumina paste, ultrasonically rinsed in deionized water, and then washed with methanol. This procedure was repeated after each cycle. For test purposes, the first anodic oxidation potential was recorded (mV).

[2] = tested on: formation of advanced glycation end products; design: method as in PMID 27709826; conditions: cited from earlier work
[3] = biological target: T1, Angiotensin-converting enzymes (ACE) from porcine kidneys (EC 3.4.15.1) (Sus scrofa, UniProt F1RRW5); assay: biochemical; conditions: for lower IC50 in relation to the respective aglycone: glycoside vs aglycon
T1 construct: Angiotensin-converting enzymes (ACE) from porcine kidneys (EC 3.4.15.1) were purchased from Sigma-Aldrich; purchased Sigma-Aldrich (St. Louis, MO, USA); host or cells: porcine kidneys (tissue-derived enzyme)
T1 sequence (F1RRW5 34-1309): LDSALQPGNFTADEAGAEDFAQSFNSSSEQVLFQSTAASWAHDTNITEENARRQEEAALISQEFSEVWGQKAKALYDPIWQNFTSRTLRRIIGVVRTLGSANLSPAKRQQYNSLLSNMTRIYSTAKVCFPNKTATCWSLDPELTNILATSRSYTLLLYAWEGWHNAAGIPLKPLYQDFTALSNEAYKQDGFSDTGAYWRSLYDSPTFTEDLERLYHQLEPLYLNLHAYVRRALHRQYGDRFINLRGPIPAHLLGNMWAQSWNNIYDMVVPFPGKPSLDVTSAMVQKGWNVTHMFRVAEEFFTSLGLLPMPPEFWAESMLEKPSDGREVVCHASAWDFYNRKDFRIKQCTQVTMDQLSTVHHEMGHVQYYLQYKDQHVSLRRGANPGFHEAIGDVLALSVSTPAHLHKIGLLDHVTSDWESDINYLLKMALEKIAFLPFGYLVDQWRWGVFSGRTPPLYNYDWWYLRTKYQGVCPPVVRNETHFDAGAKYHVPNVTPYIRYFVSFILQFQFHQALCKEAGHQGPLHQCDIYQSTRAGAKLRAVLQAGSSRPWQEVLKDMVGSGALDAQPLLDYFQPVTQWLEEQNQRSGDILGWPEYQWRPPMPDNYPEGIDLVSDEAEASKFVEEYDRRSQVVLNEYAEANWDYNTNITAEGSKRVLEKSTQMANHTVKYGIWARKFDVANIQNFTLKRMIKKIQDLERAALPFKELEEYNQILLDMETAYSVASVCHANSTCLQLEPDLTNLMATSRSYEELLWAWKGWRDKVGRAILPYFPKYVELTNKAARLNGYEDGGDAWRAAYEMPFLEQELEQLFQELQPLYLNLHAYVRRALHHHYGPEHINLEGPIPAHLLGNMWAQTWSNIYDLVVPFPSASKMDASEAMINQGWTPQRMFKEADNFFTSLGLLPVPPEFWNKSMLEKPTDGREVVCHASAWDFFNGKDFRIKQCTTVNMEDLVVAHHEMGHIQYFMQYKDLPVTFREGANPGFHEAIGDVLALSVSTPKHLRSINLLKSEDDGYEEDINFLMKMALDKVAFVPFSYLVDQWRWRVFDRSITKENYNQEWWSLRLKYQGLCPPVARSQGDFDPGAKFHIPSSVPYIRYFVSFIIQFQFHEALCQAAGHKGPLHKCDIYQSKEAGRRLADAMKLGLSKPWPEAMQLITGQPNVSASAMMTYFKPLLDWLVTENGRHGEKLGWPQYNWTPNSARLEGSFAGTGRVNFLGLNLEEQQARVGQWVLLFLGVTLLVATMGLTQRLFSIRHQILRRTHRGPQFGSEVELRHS
Method: Angiotensin-converting enzymes (ACE) from porcine kidneys (EC 3.4.15.1) were purchased from Sigma-Aldrich (St. Louis, MO, USA). A three-tris-base buffer was as follows: buffer A: 300 mM Tris-base buffer (pH 8.3) with 2 mM ZnCl2; buffer B: 150 mM Tris-base buffer (pH 8,3); and buffer C: 150 mM Tris-base buffer (pH 8.3) with […] NaCl. The substrate o-aminobenzoylglycyl-p-nitorphenylalanylproline (Abz-Gly-Phe(NO2)-Pro) was obtained from BACHEM (Bubendorf, Switzerland). Standards of phenolic acids, flavonoids, glucosides, and low-molecular-weight phenolic metabolites were obtained from Sigma-Aldrich (St. Louis, MO, USA) and Extrasynthese (Genay, France). Water was purified using the Mili-Q system (Milipore, Bedford, MA, USA).
Stock solutions at 1 mM of selected phenolic acids, flavonoids, their O-glucosides, and low-molecular-weight phenolic metabolites were prepared in 80% methanol. The concentration was confirmed by a UV measurement according to Franke et al.. A wide range of concentrations of each compound was prepared by serial dilutions in deionized water to determine the IC50 value. […] The ACE inhibitory activity was obtained from three repetitions (n = 3) for each concentration.
Angiotensin-converting enzyme (ACE) activity inhibitory assay was performed according to the method of Sentandreu and Toldra. The procedure was based on the hydrolysis of the internally quenched substrate o-aminobenzoylglycyl-p-nitorphenylalanylproline (Abz-Gly-Phe(NO2)-Pro) by the reaction of ACE. The fluorescence generated by the liberation of the product (the o-aminobenzoylglycine group) was read in a microplate multiscan fluorometer. The production of fluorescence was inhibited by the presence of functional compounds with an ACE inhibitory effect. The fluorescence was measured immediately after mixing (0 min) and then after 30 min of reaction at an excitation of 365 nm and an emission of 405 nm. To calculate the % of inhibition of ACE, the following equation was used:Relative ACE activity% = 100 − (ΔRFUsample × 100/ΔRFUnegative control), where ΔRFU = RFU at time 30 – RFU at time 0.

ACE [4] = tested on: ACE; design: method as in PMID 23185345; conditions: same fluorometric method as this study; read-out: IC50 (ACE inhibition); cited from earlier work
ACE [5] = conditions: cited from earlier work; for IC50: read-out: IC50 (ACE inhibitory activity)
[6] = porcine kidney ACE, substrate Abz-Gly-Phe(NO2)-Pro, fluorescence after 30 min, mean ± SD, read-out: IC50 Value (ACE inhibitory activity)
[7] = IC50 Value (ACE inhibitory activity), porcine kidney ACE, substrate Abz-Gly-Phe(NO2)-Pro, fluorescence after 30 min, mean ± SD
[8] = values of this study restated in mM in the discussion, read-out: IC50 (ACE inhibition)

Row | SMILES | Anodic Peak Potential Epa [1] | IC50 [3, 6] [mM] | also measured
1 | O=C(O)Cc1ccc(O)c(O)c1 [3,4-DHPAA, 3,4-dihydroxyphenylacetic acid] | 432 ± 6 ^g mV | 0.6728 ± 0.00493 | inhibitory activity against the formation of advanced glycation end products [2]: strong inhibitory activity
2 | O=c1cc(-c2ccc(O)cc2)oc2cc(O)cc(O)c12 [Apigenin] | 810 ± 6 ^c mV | – | IC50 (ACE [4]): 196 µM; IC50 [3, 7]: 0.337 ± 0.00372 mM
3 | O=C(O)/C=C/c1ccc(O)c(O)c1 [Caffeic acid] | 397 ± 8 ^e mV | 9.11 | IC50 (ACE [5]): 8970 ± 80 µM; Anodic Peak Potential Epa ([1]; listed as caffeic acid): 397 mV; IC50 [3, 8]: 9.11 ± 0.06 mM
4 | O=c1c(O)c(-c2ccc(O)cc2)oc2cc(O)cc(O)c12 [Kaempferol] | 394 ± 4 ^g mV | 0.132 ± 0.00247 | IC50 (ACE [4]): 178 µM
5 | O=c1cc(-c2ccc(O)c(O)c2)oc2cc(O)cc(O)c12 [Luteolin] | 407 ± 5 ^f mV | 0.0771 ± 0.00255 | IC50 (ACE [4]): 23 µM; IC50 lower than the value for naringenin ([3]; ACE inhibition): fivefold
6 | COC(=O)CCc1ccc(O)cc1 [MET, 3-(4-hydroxyphenyl)propionic methyl ester] | 574 ± 5 ^f mV | 0.726 ± 0.00571 | antioxidant power class based on the first oxidation potential ([1]; low-molecular-weight phenolic metabolites, classes according to Blasco et al. [47]): moderate antioxidant power (moderate antioxidant power (0.3 V < Epa < 0.8 V))
7 | O=C1CC(c2ccc(O)cc2)Oc2cc(OC3OC(CO)C(O)C(O)C3O)cc(O)c21 (stereo not drawn) [Naringenin-7-O-glucoside] | 830 ± 8 ^ab mV | 0.3572 ± 0.00199 | lower IC50 in relation to the respective aglycone ([3]; ACE inhibition): 9%
8 | O=C1C[C@@H](c2ccc(O)cc2)Oc2cc(O)cc(O)c21 [Naringenin] | 819 ± 7 ^bc mV | 0.391 | –
9 | OCC1OC(Oc2cc3c(O)cc(O)cc3[o+]c2-c2ccc(O)cc2)C(O)C(O)C1O (stereo not drawn) [Pelargonidin-3-O-glucoside] | 473 ± 5 ^d mV | 0.3769 ± 0.00261 | higher value of IC50 as compared to the IC50 of the respective aglycon ([3]; ACE inhibition, glucoside vs aglycon): 29%
10 | Oc1ccc(-c2[o+]c3cc(O)cc(O)c3cc2O)cc1 [Pelargonidin] | 228 ± 5 ^j mV | 0.293 ± 0.0034 | –
11 | O=C(O)c1ccc(O)c(O)c1 [Protocatechuic acid] | 417 ± 12 ^e mV | 6.235 ± 0.042 | Anodic Peak Potential Epa ([1]; listed as protocatechuic acid): 417 mV; IC50 [3, 8]: 6.24 mM
12 | O=c1c(O)c(-c2ccc(O)c(O)c2)oc2cc(O)cc(O)c12 [Quercetin] | 330 ± 4 ^g mV | 0.121 ± 0.00156 | –
13 | C[C@@H]1O[C@@H](OC[C@H]2O[C@@H](Oc3c(-c4ccc(O)c(O)c4)oc4cc(O)cc(O)c4c3=O)[C@H](O)[C@@H](O)[C@@H]2O)[C@H](O)[C@H](O)[C@H]1O [Rutin, quercetin-O-3-rutinoside] | 389 ± 4 ^g mV | – | IC50 (ACE [4]): 64 µM; lower IC50 in relation to the respective aglycone ([3]; ACE inhibition): 50%; IC50 [3, 7]: 0.0593 mM
14 | COc1cc(/C=C/C(=O)O)cc(OC)c1O [Sinapic acid] | 618 ± 7 ^c mV | – | IC50 [3, 7]: 0.493 ± 0.00614 mM
15 | COc1cc(C(=O)O)cc(OC)c1O [Syringic acid] | 731 ± 9 ^a mV | 2.76 ± 0.0363 | –
16 | COc1cc(C(=O)O)ccc1O [Vanillic acid] | 748 ± 10 ^a mV | 4.11 ± 0.0483 | Anodic Peak Potential Epa ([1]; listed as vanillic acid): 748 mV
17 | O=C(O)C=Cc1ccc(O)cc1 [p-Coumaric acid] | 672 ± 10 ^b mV | 0.315 ± 0.0098 | Anodic Peak Potential Epa ([1]; listed as p-coumaric acid): 672 mV
18 | O=C(CCc1ccc(O)cc1)c1c(O)cc(O)cc1O [phloretin] | – | – | IC50 higher than the IC50 of phloretin 2′-O-glucose (ACE [5]): 25%; IC50 (ACE [5]): 286.8 ± 2.54 µM
19 | C[C@@H]1O[C@@H](O[C@H]2[C@H](Oc3cc(O)c4c(=O)cc(-c5ccc(O)cc5)oc4c3)O[C@H](CO)[C@@H](O)[C@@H]2O)[C@H](O)[C@H](O)[C@H]1O [rhoifolin, reference compound] | – | – | IC50 (ACE [4]): 183 µM
